Results: US5625032A, “Selective amylin antagonist peptides and uses therefor” (Amylin Pharmaceuticals, Inc., priority 1993, dated 1997)
Entries after “also recorded” stand apart in the source; their conditions may differ. Peptide text beside a SMILES is read from it.

Tests used:
[1] = system: rat soleus muscle; assay: Soleus muscle assay: antagonism of 100 nM rat amylin on insulin-stimulated glycogenesis; type: cell-based; conditions: read-out: IC50, antagonism of amylin effect on insulin-stimulation of glycogenesis in skeletal muscle
Experimental: Rat soleus muscle preparations have been in use for many years to study muscle glycogen metabolism and are well known in the field. The soleus muscle assay can be used to measure or test for amylin antagonist activity in vitro. Assays of biological activity of amylin or amylin antagonist preparations in the soleus muscle are performed using previously described methods (e.g., Young, A. A. et al., Am. J. Physiol. 263:E274-281 (1992)).
In summary, while amylin or amylin agonist activity is assessed by measuring the incorporation of radiolabelled glucose into glycogen in soleus muscle in response to an amylin or other amylin agonist, amylin antagonist activity is assessed by measuring the reversal of this inhibition in the presence of 100 nM rat amylin and an amylin antagonist. Concentrations of peptide dissolved in carrier-free buffers are determined by quantitative amino acid analysis, as described herein. The ability of compounds to act as antagonists in this assay can also be evaluated by measuring IC50 values. Standard errors are determined by fitting of sigmoidal dose response curves using a four parameter logistic equation (De Lean, A., Munson, P. J., Guardabasso, V. and Rodbard, D. (1988) ALLFIT, Version 2.7, National Institute of Child Health and Human Development, N.I.H. Bethesda, Md., 1 diskette).
These assays involving the stimulation by insulin of glycogen synthesis in rat soleus muscle in vitro were performed as described by Young, A. A. et al., Am. J. Physiol. 263:E274-281 (1992). Rat amylin inhibited the insulin-stimulated incorporation of radiolabelled glucose into glycogen.
The effects of the peptide in the rat soleus muscle glycogenesis system were measured according to the following method. Insulin-stimulated radioglucose incorporation was measured as described above in the presence of 100 nM rat amylin to maximally suppress incorporation. Increasing concentrations of AAP30 (SEQ ID NO:30), AAP37 (SEQ ID NO:37) and AAP40 (SEQ ID NO:40) were added to test their antagonism of amylin, i.e., to increase radioglucose incorporation under these conditions.

[2] = molecular target: T1, CGRP receptors (Homo sapiens, UniProt O60894+Q16602); assay: CGRP receptor binding assay (125I human αCGRP, SK-N-MC cell membranes); conditions: for IC50: 20 pM 125I human αCGRP; for selectivity for amylin receptors than CGRP receptors: ratio of CGRP receptor IC50 to amylin receptor IC50
T1 construct: SK-N-MC cells were homogenized in 50 mM HEPES buffer, pH 7.4, and membranes were collected by centrifugation; endogenous in cells; host or cells: human SK-N-MC neuroblastoma cells (membranes)
T1 sequence (Q16602 23-461): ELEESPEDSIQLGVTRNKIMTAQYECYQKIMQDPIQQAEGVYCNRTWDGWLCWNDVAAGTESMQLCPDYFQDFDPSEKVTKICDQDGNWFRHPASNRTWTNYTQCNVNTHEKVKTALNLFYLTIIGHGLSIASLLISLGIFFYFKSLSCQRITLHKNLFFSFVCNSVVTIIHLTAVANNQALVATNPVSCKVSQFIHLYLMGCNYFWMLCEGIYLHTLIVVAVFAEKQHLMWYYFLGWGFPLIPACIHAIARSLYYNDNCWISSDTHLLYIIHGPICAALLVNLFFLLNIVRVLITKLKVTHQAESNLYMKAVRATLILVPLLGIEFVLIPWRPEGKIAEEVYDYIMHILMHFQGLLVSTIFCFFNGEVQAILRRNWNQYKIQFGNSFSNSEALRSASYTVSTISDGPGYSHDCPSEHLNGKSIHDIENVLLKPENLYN
T1 sequence (O60894 27-148): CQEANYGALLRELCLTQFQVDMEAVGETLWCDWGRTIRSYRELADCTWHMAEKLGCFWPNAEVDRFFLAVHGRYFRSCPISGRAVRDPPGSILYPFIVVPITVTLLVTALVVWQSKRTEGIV
Excerpt: (§1) As more fully described in Example 9, these assays, like the amylin receptor binding assay, are competition assays which measure the ability of compounds to bind specifically to certain membrane-bound receptors. Preferred sources of membrane preparations used in these assays are human SK-N-MC neuroblastoma cells and human T47D carcinoma cells to measure binding to CGRP and calcitonin receptors, respectively. Compounds being assayed compete for binding to the CGRP receptor preparations with ^125 I human αCGRP and to the calcitonin receptor preparations with ^125 I salmon calcitonin. Competition curves are analyzed as described for amylin receptor binding assays. The affinity of a compound for the amylin receptor relative to the affinity of the compound for the CGRP and calcitonin receptors determines the selectivity of the compound.
(§2) The selectivity of antagonist peptides for the amylin receptor relative to the CGRP and calcitonin receptors was determined by using two in vitro radioligand binding assays and comparing the results obtained to those acquired from the amylin receptor binding assay described in Example 7.
To measure the affinity of the peptides for CGRP receptors, human SK-N-MC neuroblastoma cells were used. […] Van Valen, Piechot & Jurgens, Neuroscience Letters 119:195-198 (1990). SK-N-MC cells were homogenized in 50 mM HEPES buffer, pH 7.4, and membranes were collected by centrifugation for 15 min at 48,000×g. Membranes were suspended at 0.1 to 0.2 mg protein/0.2 ml assay and were incubated in 50 mM HEPES, pH 7.4 containing BSA, bacitracin, and 2 mM MgCl2 with 20 pM ^125 I human αCGRP (labeled at ^10 his, 2000 Ci/mmol) and unlabeled peptide. Additional methods were similar to those described for amylin receptor binding assays in Example 2.

[3] = molecular target: T2, calcitonin receptors (Homo sapiens, UniProt P30988); assay: Calcitonin receptor binding assay (125I salmon calcitonin, T47D cell membranes); conditions: 30 pM 125I salmon calcitonin, 60 minutes, ambient temperature
T2 construct: Membranes were prepared from confluent cultures of T47D cells as described for SK-N-MC cells; endogenous in cells; host or cells: human T47D carcinoma cells (membranes)
T2 sequence (P30988 25-474): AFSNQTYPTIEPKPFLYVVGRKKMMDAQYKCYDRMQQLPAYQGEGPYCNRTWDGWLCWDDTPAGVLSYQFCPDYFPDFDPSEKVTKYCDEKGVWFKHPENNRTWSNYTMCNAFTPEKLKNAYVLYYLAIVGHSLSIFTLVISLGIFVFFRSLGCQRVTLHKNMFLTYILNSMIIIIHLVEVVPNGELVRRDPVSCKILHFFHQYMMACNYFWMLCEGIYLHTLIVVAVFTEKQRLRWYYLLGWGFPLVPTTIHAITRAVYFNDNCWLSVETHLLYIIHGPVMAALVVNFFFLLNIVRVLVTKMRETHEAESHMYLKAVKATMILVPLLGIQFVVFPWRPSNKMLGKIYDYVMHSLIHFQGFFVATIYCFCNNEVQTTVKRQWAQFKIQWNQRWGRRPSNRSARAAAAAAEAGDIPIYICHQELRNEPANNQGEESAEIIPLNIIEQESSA
Excerpt: as §1, §2
(§3) To determine the affinity of the antagonist peptides for calcitonin receptors, human T47D carcinoma cells were used. […] Findlay et al., Cancer Research 40:4764-4767 (1980). Membranes were prepared from confluent cultures of T47D cells as described for SK-N-MC cells. Membranes were incubated with ^125 I salmon calcitonin (labeled at ^22 tyr, 2000 Ci/mmol) at a concentration of 30 pM for 60 minutes at ambient temperature. Additional methods were similar to those described for amylin receptor binding assays in Example 2. The IC50 of AAP40 (SEQ ID NO:40) for ^125 I salmon calcitonin binding to human T47D cell membranes was 50 nM.

[4] = system: calcitonin receptors; assay: as above; parameters: species or system human; conditions: ratio of calcitonin receptor IC50 to amylin receptor IC50
Excerpt: as §1, §2, §3

[5] = system: anesthetized rats; assay: Infusion studies: inhibition of amylin-induced changes in plasma glucose, lactate, calcium and blood pressure; type: in vivo; conditions: rat, i.v. 1.5 mg bolus then 3 mg/hr for 1.5 h; amylin 50 μg bolus + 50 μg/hour
Experimental: Briefly, these studies are performed on anesthetized rats as described in International Application Number PCT/US92/00185, "Amylin Activity Assays", published Jul. 22, 1992. At time -0.5 hours, test rats are infused with a 1.5 mg bolus of the antagonist being tested followed by antagonist infusion at 3 mg/hr for a further 1.5 hours. At time 0 hours, a 50 μg bolus of amylin is administered followed by amylin infusion at 50 μg/hr for the remainder of the experiment. In these tests, the capacity of the antagonist to block the hyperglycemic and hyperlactemic effects of amylin are indicated by the inhibition of amylin-evoked increases in plasma glucose and plasma lactate.
Amylin antagonists were evaluated in vivo for their ability to inhibit amylin-induced elevation of plasma glucose and plasma lactate and amylin-evoked depression of plasma calcium and blood pressure. Male Harlan Sprague Dawley rats (age 75-85 days, mass 300-350 g) fasted 18-20 hours were halothane anesthetized and cannulated via the saphenous vein for infusions/injections and via the femoral artery for sampling of glucose/lactate/calcium and for recording arterial pressure. One and a half hours after surgery they were infused with a 1.5 mg intravenous bolus of test antagonist, followed by an infusion of 3 mg/hour for a further 1.5 hours (t=-0.5→+1.0 hr). At t=0 hours (0.5 hours after the start of the primed/continuous antagonist infusion) a 50 μg intravenous bolus of rat amylin was administered followed by an infusion of 50 μg/hour which continued until the end of the experiment. Blood samples were collected every 10 minutes for the first 2 hours of the test (then less frequently),and mean arterial pressure was continuously recorded from t=-0.5→t=+0.5 hours. Control rats, not administered the test substance, were injected with either saline or with primed/continuous amylin at t=0 hours, as described above.

[6] = system: anesthetized rats; assay: Renin studies: inhibition of amylin-induced plasma renin activity; type: in vivo; conditions: rat, i.v. 0.5 mg then 1.0 mg/hour; amylin 10 μg subcutaneous bolus
Experimental: The amylin antagonist AAP40 (SEQ ID NO:40) was evaluated in vivo for its ability to inhibit amylin-induced plasma renin activity. Male Harlan Sprague Dawley (age 77-82 days, mass 300-350 g) fasted 18-20 hours were halothane anesthetized and cannulated as described in Example 10. One and a half hours after surgery, one treatment group of 7 rats was administered amylin as a 10 μg subcutaneous bolus (t=0). Another treatment group of 6 rats was similarly treated except that they were also administered AAP40 (SEQ ID NO:40) (1 mg/mL) as a primed continuous intravenous infusion of 0.5 mg, then 1.0 mg/hour for a further 1.5 hours (t=-10 min to t=+120 min). Blood samples were collected at t=-30, 0, 30, 60 and 120 min for assessment of plasma renin activity using the INCStar GammaCoat [^125 I] plasma renin activity RIA kit (INCStar, Stillwater, Minn.; Cat. No. CA-533-553). Control rats, not administered AAP40 (SEQ ID NO:40), were injected with either saline or with primed/continuous amylin at t=0 hours, as described above.

SMILES	IC50 [1]	IC50 [2]	selectivity for amylin receptors than CGRP receptors [2]	IC50 [3]	selectivity for amylin receptors than calcitonin receptors [4]	effect on amylin-induced decrease in blood pressure (hypotension) [5]	effect on amylin-induced decrease in plasma calcium (hypocalcemia) [5]	effect on amylin-induced increase in plasma glucose (hyperglycemia) [5]	effect on amylin-induced increase in plasma lactate (hyperlactemia) [5]	effect on amylin-induced plasma renin activity [6]
CC(=O)N[C@@H](C)C(=O)N[C@H](C(=O)N[C@@H](CCC(N)=O)C(=O)N[C@@H](CC(C)C)C(=O)N[C@@H](CC(C)C)C(=O)N[C@@H](C)C(=O)N[C@@H](CC(N)=O)C(=O)N[C@@H](CCC(N)=O)C(=O)N[C@@H](CC(C)C)C(=O)N[C@H](C(=O)N[C@@H](CCCNC(=N)N)C(=O)N[C@@H](CC(C)C)C(=O)N[C@@H](CCC(N)=O)C(=O)N[C@H](C(=O)N[C@@H](Cc1ccc(O)cc1)C(=O)N1CCC[C@H]1C(=O)N[C@@H](CCCNC(=N)N)C(=O)N[C@H](C(=O)N[C@@H](CC(N)=O)C(=O)N[C@H](C(=O)NCC(=O)N[C@@H](CO)C(=O)N[C@@H](CC(N)=O)C(=O)N[C@H](C(=O)N[C@@H](Cc1ccc(O)cc1)C(N)=O)[C@@H](C)O)C(C)C)[C@@H](C)O)[C@@H](C)O)C(C)C)[C@@H](C)O [AAP30] (Ac-ATQLLANQLVRLQTYPRTNVGSNTY-NH2; N-terminus assumed)	1130 nM	69 nM	43 fold	36 nM	22 fold	did not inhibit amylin-induced decreases in blood pressure	did not inhibit	suppressed; also recorded: prevent	suppressed; also recorded: prevent	–
CC(=O)N[C@@H](C)C(=O)N[C@H](C(=O)N[C@@H](CCC(N)=O)C(=O)N[C@@H](CCCNC(=N)N)C(=O)N[C@@H](CC(C)C)C(=O)N[C@@H](C)C(=O)N[C@@H](CC(N)=O)C(=O)N[C@@H](CCC(N)=O)C(=O)N[C@@H](CC(C)C)C(=O)N[C@H](C(=O)N[C@@H](CCCNC(=N)N)C(=O)N[C@@H](CC(C)C)C(=O)N[C@@H](CCC(N)=O)C(=O)N[C@H](C(=O)N[C@@H](Cc1ccc(O)cc1)C(=O)N1CCC[C@H]1C(=O)N[C@@H](CCCNC(=N)N)C(=O)N[C@H](C(=O)N[C@@H](CC(N)=O)C(=O)N[C@H](C(=O)NCC(=O)N[C@@H](CO)C(=O)N[C@@H](CC(N)=O)C(=O)N[C@H](C(=O)N[C@@H](Cc1ccc(O)cc1)C(N)=O)[C@@H](C)O)C(C)C)[C@@H](C)O)[C@@H](C)O)C(C)C)[C@@H](C)O [AAP37] (Ac-ATQRLANQLVRLQTYPRTNVGSNTY-NH2)	4590 nM	2.6 nM	12 fold	160 nM	762 fold	did block this effect	did not inhibit	suppressed; also recorded: prevent	suppressed; also recorded: prevent	–
CC(=O)N[C@@H](C)C(=O)N[C@H](C(=O)N[C@@H](CCC(N)=O)C(=O)N[C@@H](CCCNC(=N)N)C(=O)N[C@@H](CC(C)C)C(=O)N[C@@H](C)C(=O)N[C@@H](CC(N)=O)C(=O)N[C@@H](CCC(=O)O)C(=O)N[C@@H](CC(C)C)C(=O)N[C@H](C(=O)N[C@@H](CCCNC(=N)N)C(=O)N[C@@H](CC(C)C)C(=O)N[C@@H](CCC(N)=O)C(=O)N[C@H](C(=O)N[C@@H](Cc1ccc(O)cc1)C(=O)N1CCC[C@H]1C(=O)N[C@@H](CCCNC(=N)N)C(=O)N[C@H](C(=O)N[C@@H](CC(N)=O)C(=O)N[C@H](C(=O)NCC(=O)N[C@@H](CO)C(=O)N[C@@H](CC(N)=O)C(=O)N[C@H](C(=O)N[C@@H](Cc1ccc(O)cc1)C(N)=O)[C@@H](C)O)C(C)C)[C@@H](C)O)[C@@H](C)O)C(C)C)[C@@H](C)O [AAP40] (Ac-ATQRLANELVRLQTYPRTNVGSNTY-NH2)	136 nM	33 nM	66 fold	50 nM	100 fold	did not inhibit	did not inhibit	suppressed; also recorded: prevent	suppressed; also recorded: prevent	effectively inhibits
